Drawing on ChEMBL document CHEMBL1155869, “Red light-activated phosphorothioate oligodeoxyribonucleotides” (Bioorg Med Chem Lett, 2008), this text covers Activity for three compounds.

Assay [1] is described as follows: Binding affinity to complementary DNA.
Assay [2] is described as follows: Binding affinity to complementary RNA.

Molecules are shown by their SMILES. The source made the active and inactive calls. No cut-off for these calls is given here.

For `Cc1cn([C@H]2C[C@H](OP(=O)(O)OC[C@H]3O[C@@H](n4ccc(N)nc4=O)[C@H](O)[C@@H]3OP(=O)(O)OC[C@H]3O[C@@H](n4cnc5c(=O)[nH]c(N)nc54)[C@H](O)[C@@H]3OP(=O)(O)OC[C@H]3O[C@@H](n4cnc5c(N)ncnc54)[C@H](O)[C@@H]3OP(=O)(O)OC[C@H]3O[C@@H](n4cnc5c(=O)[nH]c(N)nc54)[C@H](O)[C@@H]3OP(=O)(O)OC[C@H]3O[C@@H](n4ccc(N)nc4=O)[C@H](O)[C@@H]3OP(=O)(O)OC[C@H]3O[C@@H](n4cnc5c(=O)[nH]c(N)nc54)[C@H](O)[C@@H]3OP(=O)(O)OC[C@H]3O[C@@H](n4cc(C)c(=O)[nH]c4=O)C[C@@H]3OP(=O)(O)OC[C@H]3O[C@@H](n4cc(C)c(=O)[nH]c4=O)C[C@@H]3OP(=O)(O)OC[C@H]3O[C@@H](n4ccc(N)nc4=O)[C@H](O)[C@@H]3OP(=O)(O)OC[C@H]3O[C@@H](n4cc(C)c(=O)[nH]c4=O)C[C@@H]3OP(=O)(O)OC[C@H]3O[C@@H](n4ccc(N)nc4=O)[C@H](O)[C@@H]3OCCCS/C=C\SCCCOP(OC[C@H]3O[C@@H](n4cnc5c(N)ncnc54)[C@H](O)[C@@H]3OP(=O)(O)OC[C@H]3O[C@@H](n4ccc(N)nc4=O)[C@H](O)[C@@H]3OP(=O)(O)OC[C@H]3O[C@@H](n4cnc5c(=O)[nH]c(N)nc54)[C@H](O)[C@@H]3OP(=O)(O)OC[C@H]3O[C@@H](n4ccc(N)nc4=O)[C@H](O)[C@@H]3OP(=O)(O)OC[C@H]3O[C@@H](n4cc(C)c(=O)[nH]c4=O)C[C@@H]3OP(=O)(O)OC[C@H]3O[C@@H](n4ccc(N)nc4=O)[C@H](O)[C@@H]3OP(=O)(O)OC[C@H]3O[C@@H](n4cnc5c(=O)[nH]c(N)nc54)[C@H](O)[C@@H]3OP(=O)(O)OC[C@H]3O[C@@H](n4cnc5c(N)ncnc54)[C@H](O)[C@@H]3O)N(C(C)C)C(C)C)[C@@H](CO)O2)c(=O)[nH]c1=O` (stereo partly specified), the result in assay [1] and in assay [2] was inactive.

Take `Cc1cn([C@H]2C[C@H](OP(=O)(O)OC[C@H]3O[C@@H](n4ccc(N)nc4=O)[C@H](O)[C@@H]3OP(=O)(O)OC[C@H]3O[C@@H](n4cnc5c(=O)[nH]c(N)nc54)[C@H](O)[C@@H]3OP(=O)(O)OC[C@H]3O[C@@H](n4cnc5c(N)ncnc54)[C@H](O)[C@@H]3OP(=O)(O)OC[C@H]3O[C@@H](n4cnc5c(=O)[nH]c(N)nc54)[C@H](O)[C@@H]3OP(=O)(O)OC[C@H]3O[C@@H](n4ccc(N)nc4=O)[C@H](O)[C@@H]3OP(=O)(O)OC[C@H]3O[C@@H](n4cnc5c(=O)[nH]c(N)nc54)[C@H](O)[C@@H]3OP(=O)(O)OC[C@H]3O[C@@H](n4cc(C)c(=O)[nH]c4=O)C[C@@H]3OP(=O)(O)OC[C@H]3O[C@@H](n4cc(C)c(=O)[nH]c4=O)C[C@@H]3OP(=O)(O)OC[C@H]3O[C@@H](n4ccc(N)nc4=O)[C@H](O)[C@@H]3OP(=O)(O)OC[C@H]3O[C@@H](n4cc(C)c(=O)[nH]c4=O)C[C@@H]3OP(=O)(O)OC[C@H]3O[C@@H](n4ccc(N)nc4=O)[C@H](O)[C@@H]3O)[C@@H](CO)O2)c(=O)[nH]c1=O`: the outcome in assay [1] and in assay [2] was Active.

As for `Cc1cn([C@H]2C[C@H](OP(=O)(O)OC[C@H]3O[C@@H](n4ccc(N)nc4=O)[C@H](O)[C@@H]3OP(=O)(O)OC[C@H]3O[C@@H](n4cnc5c(=O)[nH]c(N)nc54)[C@H](O)[C@@H]3OP(=O)(O)OC[C@H]3O[C@@H](n4cnc5c(N)ncnc54)[C@H](O)[C@@H]3O)[C@@H](COP(=O)(O)O[C@H]3[C@@H](O)[C@H](n4ccc(N)nc4=O)O[C@@H]3COP(=O)(O)O[C@H]3[C@@H](O)[C@H](n4cnc5c(=O)[nH]c(N)nc54)O[C@@H]3COP(=O)(O)O[C@H]3[C@@H](O)[C@H](n4ccc(N)nc4=O)O[C@@H]3COP(=O)(O)O[C@H]3[C@@H](O)[C@H](n4cnc5c(N)ncnc54)O[C@@H]3CO)O2)c(=O)[nH]c1=O`, the result in assay [1] and in assay [2] was Active.
